Values after ≈ are worked out from the molar mass of the structure shown.
Legend:
[1] = Urinary excretion in rats, 24 h (HPLC); assay type: in vivo, CFY male rats; conditions: rat urine
Description: (§1) To the resorption tests CFY male rats weighing 170-200 g were used. After a 16-hour fasting period, Ipriflavon in a dose of 25 mg/kg (group A), Ipriflavon-β-cyclodextrin inclusion complex prepared according to Example 1 (group B) and Ipriflavon-β-cyclodextrin mixture (group C)--both containing the β-cyclodextrin in equimolar ratio to the active ingredient--were administered, thereafter rat-food and water were given "ad libitum" to the animals.
(§2) The materials to be tested were mixed for 5 minutes in 2 ml of 1% methylcellulose solution and administered by the aid of a stomach tube. The plasma samples were collected 10, 30 minutes and 1, 2 and 4 hours after the treatment using mortal haemorrhage after transecting the Vena femoralis of the animals anasthesied with ether. The blood samples were charged into heparinized tubes, centrifuged, nutsch-filtered and stored deep-freezed, in vial until further use.
In order to collect urinary samples, after treatment the animals were placed into individual metabolism vessel and urine and faeces were separately collected for 24 hours. The urinary samples were stored deep-freezed until further use. The concentration of the unchanged Ipriflavon and its main metabolite (7-hydroxy-isoflavon) in the urinary and the plasma samples was followed by HPLC. […]

[2] = parameters: species or system CFY male rats; conditions: rat, in vivo, po
Description: as §1
as §2, with “The blood samples were charged into heparinized tubes, centrifuged, nutsch-filtered and stored deep-freezed, in vial until further use.” left out
To analyse the plasma samples, to 1 ml of plasma 1 ml acetate-buffer (pH=5) and β-glucuronidase (arylsulfonase) enzyme (100 FU) diluted to 10-fold with 10 μl of distilled water were added and incubated at 37° C. for 24 hours. […] The organic phase was centrifuged,evaporated, the residue was dissolved in 100 μl of eluent and 50 μl of this solution were injected and measured. […]
In Table IV the concentration values of unchanged Ipriflavon and in Table V the concentration values of the main metabolite determined in the blood of animals are shown. […]

[3] = cited from earlier work
[4] = cited from earlier work; remark: listed apart in the source
[5] = Resorption test in rats: plasma level of unchanged Ipriflavon (HPLC); parameters: species or system CFY male rats; conditions: rat, in vivo, po, 25 mg/kg, 1440 min
[6] = physchem; assay type: physicochemical; conditions: for Concentration of dissolved Ipriflavon: 37° C.
Description: To carry out the dissolution tests 250 ml of distilled water were charged into a 500 ml flask and heated to 37° C. Thereafter the product in an amount corresponding to 50 mg of active ingredient was added then the suspension thus obtained was stirred at 1000 rpm using a magnetic stirrer. At fixed intervals 2-6 ml of samples were taken and filtered on glass-filter and after diluting, the filtrates were measured photometrically in an 1:1 mixture of water:ethanol.

[7] = cited from earlier work; remark: listed apart in the source
[8] = Solubility of Ipriflavon in aqueous cyclodextrin solutions (4 days agitation, 25° C., photometric); assay type: physicochemical
Description: One of the evidence of the formation of inclusion complex between Ipriflavon and cyclodextrin is that the cyclodextrin increases the solubility of Ipriflavon in aqueous solutions. In order to determine this property, 10 mg of Ipriflavon, cyclodextrin in different amounts and 5 ml of distilled water were charged into 10 ml test tubes. After closing, the tubes were agitated for 4 days at 25° C. at 325 rpm, thereafter the samples were filtered on a G4 glass-filter and the filtrates were photometrically analysed in 50% aqueous ethanol solution.

[9] = Resorption test in rats: plasma level of unchanged Ipriflavon (HPLC); assay type: in vivo, CFY male rats; conditions: rat
Description: as §1, §2
In order to collect urinary samples, after treatment the animals were placed into individual metabolism vessel and urine and faeces were separately collected for 24 hours. The urinary samples were stored deep-freezed until further use. The concentration of the unchanged Ipriflavon and its main metabolite (7-hydroxy-isoflavon) in the urinary and the plasma samples was followed by HPLC.
To carry out the HPLC, liquid chromatography of typ RP-18 and LiChrosorb reverse phase column (grain size in case of plasma sample: 10 μm and in case of urinary samples: 5 μm) were used. Flow velocity of eluent: 1.5 ml/min, wave length of UV detector: 254 nm, paper-velocity: 0.2 cm/min.
In case of plasma samples a mixture of 0.05M acetate buffer (pH=3):acetonitrile=60:40 and in case of urinary samples a mixture of acetate buffer:acetonitril=55:45 were used as eluent. The internal standard was ethanolic solution of 2-methyl-7-methoxy-4'-nitro-isoflavon (100 μg/ml) and to the calibration, solutions comprising 100 μg/ml and 10 μg/ml of 7-hydroxy-isoflavon in methanol were used.
To analyse the plasma samples, to 1 ml of plasma 1 ml acetate-buffer (pH=5) and β-glucuronidase (arylsulfonase) enzyme (100 FU) diluted to 10-fold with 10 μl of distilled water were added and incubated at 37° C. for 24 hours. After incubation, 50 μl of 2N NaOH were added and the mixture was extracted with benzene and centrifuged. The organic phase was separated, the aqueous phase was made acidic with […] of 1N HCl, and after adding 50 μl of internal standard solution it was repeatedly extracted with 8 ml benzene. The organic phase was centrifuged,evaporated, the residue was dissolved in 100 μl of eluent and 50 μl of this solution were injected and measured.
Equation of the calibration curve: y=8.2x-0.08; correlation coefficient: 0.9999.
In Table IV the concentration values of unchanged Ipriflavon and in Table V the concentration values of the main metabolite determined in the blood of animals are shown. To group A Ipriflavon per se, to group B the inclusion complex according to the invention and to group C the mixture of Ipriflavon and β-cyclodextrin were administered.

[10] = parameters: species or system CFY male rats; conditions: rat, in vivo, po, 25 mg/kg, 1440 min
[11] = in vivo, po, 25 mg/kg, Plasma-level of unchanged Ipriflavon

## O=c1c(-c2ccccc2)coc2cc(O)ccc12 [7-hydroxy-isoflavon]
[1]
  quantity of main metabolite of the total quantity of the metabolite: 50-55%

## CC(C)Oc1ccc2c(=O)c(-c3ccccc3)coc2c1 [Ipriflavon, 7-isopropoxy-isoflavon]
[2]
  plasma level of main metabolite: 200 to 1000 ng/mL
[3]; beagle dogs
  HPLC analysis of the blood: metabolites thereof (7-hydroxy-isoflavon as main metabolite) appear in the blood
[3]; dog, in vivo
  radioactive material administered discharged with the urine: 12%
[4]; dog, in vivo, po
  resorption of the main metabolite: 152 ng·h/mL
[4]; dogs, oral
  Ipriflavon in the blood: cannot be detected in the blood
[5]
  Plasma-level of unchanged Ipriflavon: 0 µg/mL
[6]; 1 min, distilled water
  Concentration of dissolved Ipriflavon: 435 ng/mL
[6]; 2 min, distilled water
  Concentration of dissolved Ipriflavon: 327 ng/mL
[6]; 3 min, distilled water
  Concentration of dissolved Ipriflavon: 401 ng/mL
[6]; 5 min, distilled water
  Concentration of dissolved Ipriflavon: 507 ng/mL
[6]; 10 min, distilled water
  Concentration of dissolved Ipriflavon: 882 ng/mL
[6]; 15 min, distilled water
  Concentration of dissolved Ipriflavon: 1123 ng/mL
[6]; 20 min, distilled water
  Concentration of dissolved Ipriflavon: 1197 ng/mL
[6]; 30 min, distilled water
  Concentration of dissolved Ipriflavon: 1423 ng/mL
[6]; 40 min, distilled water
  Concentration of dissolved Ipriflavon: 1508 ng/mL
[6]; 60 min, distilled water
  Concentration of dissolved Ipriflavon: 1621 ng/mL
[6]; 90 min, distilled water
  Concentration of dissolved Ipriflavon: 1525 ng/mL
[6]; 120 min, distilled water
  Concentration of dissolved Ipriflavon: 1482 ng/mL
[6]; distilled water, water
  solubility: ~1.5 µg/mL (≈ 5.35 µM)
[6]; free active ingredient
  time to reach the saturation value: 40 to 50 min
[7]
  solubility in water: 1 to 2 µg/mL
[8]; 12% aqueous alpha-cyclodextrin, solubility of Ipriflavon in α-cyclodextrin solution
  solubility at 96 h: 20 to 22 µg/mL (≈ 71.3 to 78.5 µM)
[8]; 15% DIMEB
  increase of solubility in DIMEB: 1770 -fold
[8]; 15% TRIMEB
  increase of solubility in TRIMEB: 300 -fold
[8]; 15% aqueous dimeb, solubility in DIMEB solution
  solubility at 96 h: 1700 to 2000 µg/mL (≈ 6060 to 7130 µM)
[8]; 15% aqueous trimeb, solubility in TRIMEB solution
  solubility at 96 h: 440 µg/mL (≈ 1570 µM)
[8]; aqueous α-cd 11 mg/ml, Solubility of Ipriflavon
  solubility at 96 h: 4.12 µg/mL (≈ 14.7 µM)
[8]; aqueous α-cd 13 mg/ml, Solubility of Ipriflavon
  solubility at 96 h: 4.68 µg/mL (≈ 16.7 µM)
[8]; aqueous α-cd 15 mg/ml, Solubility of Ipriflavon
  solubility at 96 h: 5.08 µg/mL (≈ 18.1 µM)
[8]; aqueous α-cd 20 mg/ml, Solubility of Ipriflavon
  solubility at 96 h: 6.1 µg/mL (≈ 21.8 µM)
[8]; aqueous α-cd 30 mg/ml, Solubility of Ipriflavon
  solubility at 96 h: 8.19 µg/mL (≈ 29.2 µM)
[8]; aqueous α-cd 40 mg/ml, Solubility of Ipriflavon
  solubility at 96 h: 9.63 µg/mL (≈ 34.4 µM)
[8]; aqueous α-cd 50 mg/ml, Solubility of Ipriflavon
  solubility at 96 h: 10.6 µg/mL (≈ 37.8 µM)
[8]; aqueous α-cd 70 mg/ml, Solubility of Ipriflavon
  solubility at 96 h: 14.8 µg/mL (≈ 52.7 µM)
[8]; aqueous α-cd 90 mg/ml, Solubility of Ipriflavon
  solubility at 96 h: 18.2 µg/mL (≈ 65.1 µM)
[8]; aqueous α-cd 100 mg/ml, Solubility of Ipriflavon
  solubility at 96 h: 21.6 µg/mL (≈ 77.2 µM)
[8]; aqueous α-cd 110 mg/ml, Solubility of Ipriflavon
  solubility at 96 h: 19 µg/mL (≈ 67.9 µM)
[8]; aqueous α-cd 120 mg/ml, Solubility of Ipriflavon
  solubility at 96 h: 23.6 µg/mL (≈ 84.4 µM)
[8]; aqueous β-cd 1 mg/ml, Solubility of Ipriflavon
  solubility at 96 h: 2.52 µg/mL (≈ 8.99 µM)
[8]; aqueous β-cd 3 mg/ml, Solubility of Ipriflavon
  solubility at 96 h: 7.03 µg/mL (≈ 25.1 µM)
[8]; aqueous β-cd 5 mg/ml, Solubility of Ipriflavon
  solubility at 96 h: 11.4 µg/mL (≈ 40.8 µM)
[8]; aqueous β-cd 7 mg/ml, Solubility of Ipriflavon
  solubility at 96 h: 15.9 µg/mL (≈ 56.8 µM)
[8]; aqueous β-cd 9 mg/ml, Solubility of Ipriflavon
  solubility at 96 h: 19.5 µg/mL (≈ 69.6 µM)
[8]; aqueous β-cd 11 mg/ml, Solubility of Ipriflavon
  solubility at 96 h: 15.2 µg/mL (≈ 54.3 µM)
[8]; aqueous β-cd 13 mg/ml, Solubility of Ipriflavon
  solubility at 96 h: 15.5 µg/mL (≈ 55.2 µM)
[8]; aqueous β-cd 15 mg/ml, Solubility of Ipriflavon
  solubility at 96 h: 15.8 µg/mL (≈ 56.2 µM)
[8]; aqueous β-cd 20 mg/ml, Solubility of Ipriflavon
  solubility at 96 h: 13.5 µg/mL (≈ 48 µM)
[8]; aqueous β-cd 30 mg/ml, Solubility of Ipriflavon
  solubility at 96 h: 7.59 µg/mL (≈ 27.1 µM)
[8]; aqueous β-cd 40 mg/ml, Solubility of Ipriflavon
  solubility at 96 h: 6.2 µg/mL (≈ 22.1 µM)
[8]; aqueous β-cd 50 mg/ml, Solubility of Ipriflavon
  solubility at 96 h: 5.44 µg/mL (≈ 19.4 µM)
[8]; aqueous β-cd 70 mg/ml, Solubility of Ipriflavon
  solubility at 96 h: 6.08 µg/mL (≈ 21.7 µM)
[8]; aqueous β-cd 90 mg/ml, Solubility of Ipriflavon
  solubility at 96 h: 6.93 µg/mL (≈ 24.7 µM)
[8]; aqueous β-cd 100 mg/ml, Solubility of Ipriflavon
  solubility at 96 h: 6.64 µg/mL (≈ 23.7 µM)
[8]; aqueous β-cd 110 mg/ml, Solubility of Ipriflavon
  solubility at 96 h: 5.98 µg/mL (≈ 21.3 µM)
[8]; aqueous β-cd 120 mg/ml, Solubility of Ipriflavon
  solubility at 96 h: 5.66 µg/mL (≈ 20.2 µM)
[8]; aqueous γ-cd 11 mg/ml, Solubility of Ipriflavon
  solubility at 96 h: 2.02 µg/mL (≈ 7.21 µM)
[8]; aqueous γ-cd 13 mg/ml, Solubility of Ipriflavon
  solubility at 96 h: 2.05 µg/mL (≈ 7.31 µM)
[8]; aqueous γ-cd 15 mg/ml, Solubility of Ipriflavon
  solubility at 96 h: 2.16 µg/mL (≈ 7.71 µM)
[8]; aqueous γ-cd 20 mg/ml, Solubility of Ipriflavon
  solubility at 96 h: 2.38 µg/mL (≈ 8.49 µM)
[8]; aqueous γ-cd 30 mg/ml, Solubility of Ipriflavon
  solubility at 96 h: 2.74 µg/mL (≈ 9.77 µM)
[8]; aqueous γ-cd solution, Solubility of Ipriflavon
  solubility at 96 h: 3.26 µg/mL (≈ 11.6 µM)
[8]; beta-cyclodextrin solution, constant solubility value (solubility limit of the solid inclusion complex in excess Ipriflavon)
  solubility at 96 h: 6 µg/mL (≈ 21.4 µM)
[8]; beta-cyclodextrin solution, solubility of Ipriflavon in β-cyclodextrin solution
  solubility at 96 h: 16 to 20 µg/mL (≈ 57.1 to 71.3 µM)
[8]; distilled water, water, solubility of Ipriflavon in distilled water
  solubility at 96 h: 1 to 2 µg/mL (≈ 3.57 to 7.13 µM)
[8]; β-cyclodextrin, depending on concentration
  increase of solubility in β-cyclodextrin solution vs distilled water: ≤ 15 -fold
[8]; γ-cyclodextrin
  increase of solubility in γ-cyclodextrin solution: 3 -fold
[9]; in vivo, po, 25 mg/kg, 10.2 min
  Plasma-level of unchanged Ipriflavon: 0 µg/mL
[9]; in vivo, po, 25 mg/kg, 30 min
  Plasma-level of unchanged Ipriflavon: 0 µg/mL
[9]; in vivo, po, 25 mg/kg, 60 min
  Plasma-level of unchanged Ipriflavon: 0 µg/mL
[9]; in vivo, po, 25 mg/kg, 120 min
  Plasma-level of unchanged Ipriflavon: 0 µg/mL
[9]; in vivo, po, 25 mg/kg, 2 h
  Plasma-level of unchanged Ipriflavon: 0.095 µg/mL
[9]; in vivo, po, 25 mg/kg, 240 min
  Plasma-level of unchanged Ipriflavon: 0 µg/mL
[9]; [11]
  concentration at 2 h: 78 ng/mL
  concentration at 4 h: 41 ng/mL
[9]; p.o.
  detection of unchanged Ipriflavon in plasma: can be detected only in few periods (at 2 and 4 hours)
[10]
  Plasma-level of main metabolite (7-hydoxy-isoflavon): 0 µg/mL
